# Where two headings read alike, the source gives them in different places.
# How the values were obtained:
# [1] = test system: adult, non-diabetic patients with NASH; assay: PIVENS trial (Pioglitazone versus Vitamin E versus Placebo), ancillary analysis of responders, NAS, ALT, HOMA-IR; type: in vivo, human
# Protocol: A pilot Ancillary Study to the Pioglitazone versus Vitamin E versus Placebo for the Treatment of nondiabetic Patients with Nonalcoholic Steatohepatitis (PIVENS) trial (Sanyal 2010), was conducted to ask whether hepatic Notch signaling tracks with disease pathology, and thus represent a novel biomarker of NAFLD/NASH.
# PIVENS investigators randomized adult, non-diabetic patients with NASH to therapy with placebo, vitamin E (800 IU daily) or pioglitazone (30 mg daily), and had strict inclusion and exclusion criteria for trial entry, as well as a thorough clinical phenotyping of these patients (Sanyal 2011; Sanyal 2010). The PIVENS primary outcome was an improvement in NASH pathology, defined by improved hepatocellular ballooning without increase in fibrosis, and either a 2+ point decrease in NAS or to a score of ≤3 points.
# Research-grade specimens were saved from subjects from the PIVENS trial for Ancillary Studies (Chalsani 2009). These samples were used to test the potential role of Notch signaling as either a biomarker or contributor to the NAFLD/NASH pathology.
# (§1) A subset (Table 1, right), of PIVENS research subjects had paired baseline and 96 wk cDNA available for analysis.
# HES1 = assay: PIVENS paired baseline and 96 wk liver cDNA, HES1 expression; type: in vivo, human; settings: Vitamin E-treated responders, baseline vs 96 wk
# Source text: as §1
# (§2) Sample size calculations are based from PIVENS data as described in Example 9A, and exclude pioglitazone-treated patients to be conservative. Using data derived from paired samples in Vitamin E-treated responders (mean difference of 1.11±0.51 fg/ng 18S for HES1 and 2.27±0.71 fg/ng 18S for HEYL), we calculated using unpaired t-testing with type I error=0.05 and type II error=[…], that 12 before-and-after biopsies in FLINT are required to detect a statistically significant difference in OCA-responders for both HES1 and HEYL.
# HEYL = assay: PIVENS paired baseline and 96 wk liver cDNA, HEYL expression; type: in vivo, human; settings: Vitamin E-treated responders, baseline vs 96 wk
# Source text: as §1, §2
# [2] = test system: adult, non-diabetic patients with NASH; settings: final analysis; vitamin E 800 IU daily, pioglitazone 30 mg daily; cited from earlier work
# [3] = test system: adult patients with biopsy-confirmed NASH; settings: cited from earlier work
# [4] = Cross-sectional study, nonresponders (NR)
# [5] = Cross-sectional study, responders (R)
# [6] = Cross-sectional study, number of subjects with NASH resolution or primary PIVENS outcome
# [7] = Longitudinal study, nonresponders (NR)
# [8] = Longitudinal study, responders (R)
# [9] = Longitudinal study, number of subjects
compound,measurement,setting,value
vitamin E [VitE],Responders (%),[1]; Cross-sectional study,(61%)
same,ALT,[1]; [4],55 U/L
same,HOMA-IR,[1]; [4],5.6
same,NAS,[1]; [4],4.6
same,ALT,[1]; [5],33 U/L
same,HOMA-IR,[1]; [5],5.2
same,NAS,[1]; [5],2.7 ±
same,Responders,[1]; [6],25
same,Responders (%),[1]; Longitudinal study,(60%)
same,ALT,[1]; [7],58 U/L
same,HOMA-IR,[1]; [7],5.1
same,NAS,[1]; [7],3.9
same,ALT,[1]; [8],45 U/L
same,HOMA-IR,[1]; [8],5.1
same,NAS,[1]; [8],2.6
same,Responders,[1]; [9],6
same,mean difference of HES1 in paired samples,HES1,1.11±0.51 fg/ng 18S
same,mean difference of HEYL in paired samples,HEYL,2.27±0.71 fg/ng 18S
same,PIVENS primary outcome (improvement in NASH pathology),[2],met the primary outcome
"CC[C@H]1[C@@H](O)[C@@H]2[C@H](CC[C@]3(C)[C@@H]([C@H](C)CCC(=O)O)CC[C@@H]23)[C@@]2(C)CC[C@@H](O)C[C@@H]12 [OCA, obeticholic acid]",HOMA-IR,"[3]; change, p=0.01",+13 U
same,insulin,"[3]; change, p=0.02",+29 pmol/L
same,HDL cholesterol,[3]; in vivo,significant lowering
same,insulin resistance,[3]; in vivo,increased insulin resistance
same,insulin resistance,"[3]; in vivo, listed as obeticholic acid",clearly induced insulin resistance
"CCc1ccc(CCOc2ccc(CC3SC(=O)NC3=O)cc2)nc1 (stereo not shown) [PIO, pioglitazone]",Responders (%),[1]; Cross-sectional study,(78%)
same,ALT,[1]; [4],46 U/L
same,HOMA-IR,[1]; [4],5.5
same,NAS,[1]; [4],4.8
same,ALT,[1]; [5],34 ± U/L
same,HOMA-IR,[1]; [5],2.9 ±
same,NAS,[1]; [5],2.2 ±
same,Responders,[1]; [6],29
same,Responders (%),[1]; Longitudinal study,(75%)
same,ALT,[1]; [7],56 U/L
same,HOMA-IR,[1]; [7],4.1
same,NAS,[1]; [7],5.0
same,ALT,[1]; [8],41 U/L
same,HOMA-IR,[1]; [8],3.3
same,NAS,[1]; [8],3.0
same,Responders,[1]; [9],3
